The data set can be described thus: gradient 5% acetonitrile 3 min, to 50% in 2 min, to 85% in 15 min, held 3 min, 100 µL/min. As to conditions: column: Zorbax Extend-C18 2.1 x 50 mm; eluents: water / acetonitrile, 0.1% formic acid. In a few lines: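 Each retention time is based on an adduct peak selected computationally and verified by manual inspection. Measurements used HPLC–quadrupole time-of-flight mass spectrometry in positive and negative ionization mode on mixtures of ~100 pure standards. Chromatography ran on a Zorbax Extend-C18 column (2.1 × 50 mm, 1.8 μm) at 100 μL/min with water and acetonitrile, each containing 0.1% formic acid, and dead and dwell volumes of 40 μL and 900 μL.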
On to `CCCn1cnnc1C1CCCCN1C(=O)CCc1c(C)nn(C)c1C` (stereo unspecified), for which the RP-LC retention time is 589 s.
On to `COc1cc2c(cc1CNC(=O)COc1ccc(F)cc1)OCCCO2`, for which the RP-LC retention time came to 874 s.
As for `Cc1ccc(NC(=O)Cc2nnc(-c3cnccn3)o2)cc1Cl`, the RP-LC retention time came to 756 s.
Turning to `Cc1ccc(N2CC(c3noc(-c4nccc5ccccc45)n3)CC2=O)cc1` (stereo unspecified), the RP-LC retention time came to 961 s.
Consider `CSc1ccc(-c2nc3ncccn3c2Nc2cccc(C)c2)cc1`, for which the RP-LC retention time is 843 s.
Regarding `CCOC(=O)CN1C(=O)CC(C[C@@H](O)C2C[C@@H](C)C[C@H](C)C2=O)CC1=O` (stereo partly specified), the RP-LC retention time is 821 s.
As for `CCCN(C)CC1(O)CCC2(CCN(C(=O)c3ccoc3)CC2)CC1`, the RP-LC retention time is 575 s.
The compound `CC12CC(NC(=O)N1c1cccc(C(=O)N3CCOCC3)c1)c1ccccc1O2` (stereo unspecified) registered an RP-LC retention time of 663 s.
Compound `CCOC(=O)Cn1c(=O)c2c(nc3n2CCCCN3c2ccc(OCC)cc2)n(C)c1=O` returned an RP-LC retention time of 944 s.
In the case of `CCN(CC)C(=O)C1CCN(S(=O)(=O)c2ccc3c(c2)sc(=O)n3C(C)C)CC1` it was 873 s; in that of `CN1C(=O)c2cc(C(=O)NCc3ccc(Cl)cc3)nn2CC1(C)C(=O)NCc1ccccc1` (stereo unspecified), 832 s; in that of `Cn1c(=O)n(C)c2cc(Oc3ccccc3)c(NS(=O)(=O)c3ccc(F)cc3)cc21`, 868 s.
`O=c1c2ccccc2nc2n1CCCC2` returned an RP-LC retention time of 653 s.
`CCOC(=O)N1CCN(c2nc(F)c3c(c2F)S(=O)(=O)CCN3CC2CCCO2)CC1` (stereo unspecified) displayed an RP-LC retention time of 958 s.
Take `COc1ccc(-c2nc3cnccn3c2Nc2cccc(Cl)c2)cc1`: the RP-LC retention time turned out to be 961 s.
`Cc1nc(C(=O)Nc2ccc(Cl)cc2C)c(C)o1` yielded an RP-LC retention time of 1030 s.
With `COc1ccc(CCNC(=O)C2=C3CCCN3c3ccccc3S2(=O)=O)cc1OC` the figure was 765 s; with `CCn1ccc2cc(S(=O)(=O)N3CCC(C(=O)NCCCN4CCCCC4C)CC3)ccc21` (stereo unspecified), 665 s; with `O=C(c1ccc2cc[nH]c2c1)N1CCC2(CC1)N=C(c1ccc(Cl)cc1)NO2`, 841 s.
For the compound `COC(=O)c1nnn(-c2ccc(C)c(Cl)c2)c1C(=O)OC`, the RP-LC retention time amounted to 965 s.
Compound `CCCc1nnc(NC(=O)C2CCN(C(=O)c3cccc(F)c3)CC2)s1` yielded an RP-LC retention time of 727 s.
`Cc1ccc(S(=O)(=O)N2CCSCCSCCSCCSCC2)cc1` yielded an RP-LC retention time of 1160 s.
With `CCCn1ccc2sc(C)c(C(=O)NC3CC3)c2c1=O`, the RP-LC retention time is 679 s.
Compound `O=C1CC(c2nc(-c3ccccn3)no2)CN1c1ccc2c(c1)OCCO2` (stereo unspecified) registered an RP-LC retention time of 715 s.
Regarding `Cc1cc(C)cc(NC(=O)N2CCC3(CC2)NC(=O)c2ccccc2N3C)c1`, the RP-LC retention time worked out at 808 s.
On to `Cn1nccc1C(=O)Nc1sc(-c2ccccc2)cc1C(N)=O`, for which the RP-LC retention time worked out at 810 s.
`Cc1ccc(Cn2nc3n(c2=O)CCCC3)cc1` displayed an RP-LC retention time of 702 s.
`CCOCC1CCC2(CCN(C(=O)Cn3c(=O)oc4cc(Cl)ccc43)CC2)O1` (stereo unspecified) showed an RP-LC retention time of 900 s.
In the case of `CC1(C)S[C@@H]2[C@H](NC(=O)Cc3ccccc3)C(=O)N2C1C(=O)O` (stereo partly specified) it was 732 s.
Regarding `OC(CN1CCN(c2ccccn2)CC1)c1ccc(Cl)cc1` (stereo unspecified), the RP-LC retention time came out at 563 s.
With `COC(=O)c1ccc2c(=O)n(-c3ccc(Cl)cc3)c(N3CCCN(C)CC3)nc2c1`, the RP-LC retention time amounted to 670 s.
Consider `COc1ccc(C2C(C(=O)NCC3CCCO3)CCC(=O)N2c2cc(OC)c(OC)c(OC)c2)cc1` (stereo unspecified), for which the RP-LC retention time was determined as 631 s.
With `O=C(c1cc(F)ccc1F)N1CCCC1c1nc(-c2ccc(F)cc2)no1` (stereo unspecified) the figure was 1030 s; with `COc1cc(C2C(=O)N(C3CCCCC3)CC(=O)N2Cc2ccco2)ccc1OC(C)C` (stereo unspecified), 964 s; with `COc1ccc(N2CCN(C(=O)CN3C(=O)CCc4cc(Br)ccc43)CC2)cc1`, 829 s.
In turn, `COCCN(CC(=O)N1CCc2sccc2C1COc1cccc(F)c1)C(=O)CC(C)C` (stereo unspecified) showed an RP-LC retention time of 976 s.
As for `CCOC(=O)c1c(C)[nH]c(C(=O)N2CCCC(C(=O)NCCN3CCCC3)C2)c1C` (stereo unspecified), the RP-LC retention time worked out at 603 s.
With `O=C(CN1CCc2ccccc2C1C(=O)N1CCCC1)Nc1cccc(Br)c1` (stereo unspecified), the RP-LC retention time stood at 921 s.
For `CC(=O)N1CCc2ccc(C(=O)N3CCCCCC3)cc21`, the RP-LC retention time came out at 709 s.
`O=C(Cn1c(Cc2ccccc2)nc2ccccc21)N1CCOCC1` had an RP-LC retention time of 593 s.
Consider `O=C(NCC(F)(F)F)c1ccc(=O)[nH]c1`, for which the RP-LC retention time stood at 534 s.
As for `CN(C)C(CNC(=O)Nc1cccs1)c1ccccc1Cl` (stereo unspecified), the RP-LC retention time is 562 s.
In the case of `CCc1nn2c(CNC(=O)c3ccc(Br)cc3)c(-c3ccccc3)nc2s1`, the RP-LC retention time amounted to 1010 s.
The compound `O=C(NCc1ccc(F)cc1Cl)c1csc(C(=O)N2CCCC2)n1` registered an RP-LC retention time of 864 s.
For the compound `COc1ccc(NC(=O)Cn2nc3cc(-c4ccccc4)nc(C)n3c2=O)cc1`, the RP-LC retention time is 661 s.
Consider `CC(C)CCNC(=O)C1CCN(c2cncnc2N2CCCCC2)CC1`, for which the RP-LC retention time turned out to be 674 s.
`CCc1noc(NC(C)=O)c1-c1ccc(C)c(S(=O)(=O)N(C)c2ccc(C)cc2)c1` came in with an RP-LC retention time of 861 s.
Turning to `CNC(=O)C1CCCN(c2nc3ncn(CC(=O)NCCC4=CCCCC4)c(=O)c3s2)C1` (stereo unspecified), the RP-LC retention time was determined as 685 s.
The compound `CN(C)c1ccc(CCNC(=O)C(=O)NC2CC2)cc1` yielded an RP-LC retention time of 523 s.
Turning to `CCn1ccc(C(=O)NCC(=O)N2CCCc3ccccc32)n1`, the RP-LC retention time was determined as 703 s.
`CCOC(=O)c1ccc(NC(=O)c2cc(C(C)C)n3nccc3n2)cc1` displayed an RP-LC retention time of 1170 s.
`O=C(NCc1ccccc1)C1CCCN(C(=O)C2Sc3ccccc3NC2=O)C1` (stereo unspecified) came in with an RP-LC retention time of 746 s.
In the case of `O=C(NCc1cccnc1)C1c2ccccc2C(=O)N(C2CCCC2)C1c1cccs1` (stereo unspecified) it was 591 s.
Regarding `CCN(CC)c1nc(C(=O)Nc2ccccc2OC)nc2nc(C)cc(C)c12`, the RP-LC retention time turned out to be 732 s.
`Cn1cc(CC(=O)NCC2CC2)c2cccnc21` registered an RP-LC retention time of 593 s.
On to `COc1ccc(NC(=O)C2(CCO)CCN(c3ncccn3)C2)cn1` (stereo unspecified), for which the RP-LC retention time is 706 s.
`Cc1c(Cl)cccc1NC(=O)Cn1cnc2nc(N3CCOCC3)ncc2c1=O` showed an RP-LC retention time of 678 s.
Consider `Cc1ccc(Cn2c(=O)c(N3CCN(C(=O)NC(C)C)CC3)nc3ccccc32)cc1`, for which the RP-LC retention time was found to be 981 s.
`O=C(C1=CN(c2ccccc2F)c2cc(F)ccc2S1(=O)=O)N1CCCCC1` returned an RP-LC retention time of 848 s.
In the case of `O=C(Nc1ccc(Br)cc1F)c1ccc(-n2ccnc2)nn1` it was 693 s; in that of `Cc1ccc(CNC(=O)c2ncn3c2C(=O)N(C2CC2)C(C)(C(=O)NCc2cccc(C)c2)C3)cc1` (stereo unspecified), 827 s.
